Laboratory results: patent US20250049860A1, “METHOD FOR ISOLATING, MAINTAINING, PROLIFERATING, AND DIFFERENTIATING MONOCLONAL CELLS DERIVED FROM HUMAN SALIVARY GLAND EPITHELIAL STEM CELLS OR PROGENITOR CELLS AND PRODUCTION METHOD FOR EXTRACELLULAR VESICLES FOR TREATING SALIVARY GLAND DISEASES” (INDUSTRY-ACADEMIC COOPERATION FOUNDATION, YONSEI UNIVERSITY, priority 2021, published 2025)

B1: WNT: growth factor WNT3A, Recombinant Human Wnt-3a Protein (protein, UniProt P56704 19-352, looked up)
Protein Wnt-3a: SYPIWWSLAVGPQYSSLGSQPILCASIPGLVPKQLRFCRNYVEIMPSVAEGIKIGIQECQHQFRGRRWNCTTVHDSLAIFGPVLDKATRESAFVHAIASAGVAFAVTRSCAEGTAAICGCSSRHQGSPGKGWKWGGCSEDIEFGGMVSREFADARENRPDARSAMNRHNNEAGRQAIASHMHLKCKCHGLSGSCEVKTCWWSQPDFRAIGDFLKDKYDSASEMVVEKHRESRGWVETLRPRYTYFKVPTERDLVYYEASPNFCEPNPETGSFGTRDRTCNVSSHGIDGCDLLCCGRGHNARAERRREKCRCVFHWCCYVSCQECTRVYDVHTCK

Experiments:
Format in all cases: cell-based
[1] = system: human salivary gland epithelial cells; experiment: Small molecule compound combination check in K-SFM; details: for result of addition to the culture: various combinations of small molecule compounds
Text: Isoproterenol had no effect.

[2] = system: human salivary gland epithelial cells; experiment: Concentration screening of small molecule compounds and their combination in Dermacult (KEM); details: added in combination to KEM (Dermacult)
Description: Dermacult, which can stably culture human salivary gland epithelial cells in CDM, was used as the epithelial cell culture medium (keratinocyte expansion medium, KEM), and the small molecule compounds ROCK I/II inhibitor (Y-27632), TGF-beta pathway inhibitor (A83-01), and BMP pathway inhibitor (LDN193189) were added to determine the optimal concentrations at which cell characteristics were maintained and stable long-term culture was achieved, respectively (FIG. 3).
Finally, the combination experiments with different concentrations of the small molecule compounds confirmed that salivary gland epithelial cell growth was best maintained when Y-27632 10 μM, A83-01 1 μM, and LDN193189 0.1 μM were added to KEM (FIG. 4).

[3] = system: human salivary gland epithelial cells; experiment: Addition of WNT during cell separation with initial SCM in K-SFM
Description: • (1) The cells were homogenized in 10 ml culture medium, spread evenly onto a 100×20 mm culture dish, and then incubated in an incubator at 37° C. and 5% CO2. In this case, the composition of each culture medium is as shown in Table 1. • (2) To perform the subfractionation culturing method (SCM) to isolate epithelial monoclonal cells, after 2 hours, the culture medium containing the cells was transferred to a new 100×20 mm culture dish. This procedure was repeated two more times. • (3) After 24 hours, the dish resulting from (2) was cultured, and the existing culture medium was removed every 2-3 days and replaced it with fresh culture medium. • (4) After confirming the formation of colonies, when the size of a cell cluster forming one colony exceeded 1 cm^2, the culture medium was removed, the cluster was marked with a hydrophobic pen, and the residual culture medium was removed using 1×PBS. 50 to 100 μL of TrypLE+Y27632 was added, and the cells were stored in an incubator at 37° C. and 5% CO2 environment for 15 minutes. • (5) Each cell population detached from the dish by TrypLE was added to a separate 1.5 ml tube, and 1 ml of culture medium was added. • (6) After centrifugation at 300 g for 5 minutes at 4° C., the supernatant was removed, and the cells were homogenized and spread in 250 μL of fresh culture medium into each well of a 48-well plate for each cell population. […]

| Molecule | result of addition to the culture [1] | concentration at which salivary gland epithelial cell growth was best maintained [2] | also measured |
| --- | --- | --- | --- |
| O=C(NOC[C@H](O)CO)c1ccc(F)c(F)c1Nc1ccc(I)cc1F [PD0325901] | poor results |  |  |
| Cc1cccc(-c2nn(C(=S)Nc3ccccc3)cc2-c2ccnc3ccccc23)n1 [A83-01] | universally good results | 1 µM |  |
| CC(C)NCC(O)c1ccc(O)c(O)c1 (centres unmarked) [Isoproterenol] | no effect |  |  |
| C[C@@H](N)[C@H]1CC[C@H](C(=O)Nc2ccncc2)CC1 [Y-27632] | universally good results | 10 µM |  |
| c1ccc2c(-c3cnn4cc(-c5ccc(N6CCNCC6)cc5)cnc34)ccnc2c1 [LDN193189] |  | 0.1 µM |  |
| Cc1c[nH]c(-c2cnc(NCCNc3ccc(C#N)cn3)nc2-c2ccc(Cl)cc2Cl)n1 [Chir99021] | poor results |  |  |
| CC(C)Oc1ccc(-c2cnc3c(-c4ccnc5ccccc45)cnn3c2)cc1 [DMH-1] |  |  | concentration giving effects similar to Dermacult's YAL ([1]; LDN193189 replaced with DMH-1): 1 µM |
| B1 |  |  | effect on cell growth ([3]; initial addition): rapid cell growth; effect on cell morphology ([3]; prolonged addition): changed the morphology of the cells |
